Several values for one entry are separate records, joined by “and”; a condition that tells them apart may be missing. Identical values can stand only once. Blank lines part the entries; values can stand above or below the compound they belong to.
Assays:
CDK12–cyclin K and DDB1 = biological target: T1, CDK12–cyclin K and DDB1 (Homo sapiens, UniProt Q16531+Q9NYV4, K965R); test: TR-FRET ternary complex formation assay (compound titration); format: binding; conditions: for TR-FRET signal at compound concentration: replicate titrations; for EC50: in vitro complex formation, 50 nM CDK12–cyclin K, 100 nM DDB1, text and figures, read-out: TR-FRET EC50
T1 construct: His6–CDK12 (a.a. 713–1,052); full-length or beta-propeller B domain deletion (ΔBPB: a.a. 396–705 deleted) constructs of His6–DDB1ΔBPB, StrepII–Avi–DDB1, or His6–Spy–DDB1; made in house; host or cells: Trichoplusia ni High Five insect cells (baculovirus)
T1 sequence (Q9NYV4 713-1052 K965R): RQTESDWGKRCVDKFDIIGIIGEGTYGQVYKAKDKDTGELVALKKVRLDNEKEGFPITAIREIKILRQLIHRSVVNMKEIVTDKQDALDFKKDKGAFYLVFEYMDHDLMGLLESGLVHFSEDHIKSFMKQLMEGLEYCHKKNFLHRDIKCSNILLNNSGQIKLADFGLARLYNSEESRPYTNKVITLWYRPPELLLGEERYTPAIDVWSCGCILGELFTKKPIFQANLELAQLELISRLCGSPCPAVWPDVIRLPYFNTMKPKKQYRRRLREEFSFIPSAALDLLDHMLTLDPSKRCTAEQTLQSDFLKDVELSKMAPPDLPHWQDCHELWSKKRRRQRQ
T1 sequence (O75909 1-267 partner): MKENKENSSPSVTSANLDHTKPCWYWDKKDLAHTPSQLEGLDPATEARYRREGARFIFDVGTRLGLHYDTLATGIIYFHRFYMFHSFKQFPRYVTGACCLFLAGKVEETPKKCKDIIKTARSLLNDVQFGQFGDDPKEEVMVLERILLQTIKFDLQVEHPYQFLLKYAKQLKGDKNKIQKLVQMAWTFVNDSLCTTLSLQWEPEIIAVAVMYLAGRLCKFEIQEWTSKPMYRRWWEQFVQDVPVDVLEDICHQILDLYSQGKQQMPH
T1 sequence (Q16531 whole entry): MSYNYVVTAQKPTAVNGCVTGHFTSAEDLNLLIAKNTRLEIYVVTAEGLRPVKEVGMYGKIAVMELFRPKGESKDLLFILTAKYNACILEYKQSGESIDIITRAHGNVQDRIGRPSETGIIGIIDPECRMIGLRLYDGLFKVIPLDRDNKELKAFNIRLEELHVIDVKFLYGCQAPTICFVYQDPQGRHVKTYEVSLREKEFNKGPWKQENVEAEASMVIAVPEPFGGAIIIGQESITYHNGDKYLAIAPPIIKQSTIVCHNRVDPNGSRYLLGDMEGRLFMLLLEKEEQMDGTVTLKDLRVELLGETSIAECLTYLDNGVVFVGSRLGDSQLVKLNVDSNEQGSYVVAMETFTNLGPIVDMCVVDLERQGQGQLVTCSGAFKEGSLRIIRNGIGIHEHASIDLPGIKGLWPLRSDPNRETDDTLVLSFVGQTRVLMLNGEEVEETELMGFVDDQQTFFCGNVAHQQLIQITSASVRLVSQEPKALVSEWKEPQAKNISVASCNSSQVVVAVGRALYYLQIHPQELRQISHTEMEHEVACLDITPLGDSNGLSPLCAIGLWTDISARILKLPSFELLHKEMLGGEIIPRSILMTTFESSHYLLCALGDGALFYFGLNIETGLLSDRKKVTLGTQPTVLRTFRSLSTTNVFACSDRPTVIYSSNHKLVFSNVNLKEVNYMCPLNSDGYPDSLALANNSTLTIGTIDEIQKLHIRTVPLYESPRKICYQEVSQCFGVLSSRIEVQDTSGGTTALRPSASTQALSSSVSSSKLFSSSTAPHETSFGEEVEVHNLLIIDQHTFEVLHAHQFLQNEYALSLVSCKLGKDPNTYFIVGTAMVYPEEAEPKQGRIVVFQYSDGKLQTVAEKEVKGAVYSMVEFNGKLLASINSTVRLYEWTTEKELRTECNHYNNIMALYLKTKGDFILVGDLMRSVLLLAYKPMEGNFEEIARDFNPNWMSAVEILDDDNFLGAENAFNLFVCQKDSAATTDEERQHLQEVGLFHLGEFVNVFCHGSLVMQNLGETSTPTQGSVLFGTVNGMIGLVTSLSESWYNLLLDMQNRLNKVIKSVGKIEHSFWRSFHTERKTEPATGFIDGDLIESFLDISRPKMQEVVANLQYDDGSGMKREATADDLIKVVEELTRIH
Text: A 70 μs delay was employed to reduce background fluorescence. The TR-FRET signal was obtained through calculating the ratio of 520 nm to 490 nm fluorescence, and Prism 9 (GraphPad) was used for further data analysis.

[1] = tested on: cyclin K–eGFP degradation reporter; test: Cyclin K reporter stability analysis (dual-color cyclin K–eGFP reporter); format: cell-based, human; conditions: Supplementary Table 2; HEK293T cycK-eGFP reporter, 5 h; read-out: Cellular assays DC50
Protocol: HEK293T–Cas9 cells expressing the cyclin K–eGFP degradation reporter were resuspended at 1 × 10^6 ml^−1 and 50 µl of cell suspension was seeded in non-cell-culture-treated 384-well plates. Shortly after, cells were treated with drug or DMSO for 5 h. […] The fluorescent signal was quantified by flow cytometry (LSRFortessa flow cytometer, BD Biosciences). Using FlowJo (flow cytometry analysis software, BD Biosciences), the geometric mean of the eGFP and mCherry fluorescent signal for round and mCherry-positive cells was calculated. The ratio of eGFP to mCherry was normalized to the average of three DMSO-treated controls.

HEK293T cells = test: Drug sensitivity assay (CellTiter-Glo viability) with or without MLN4924 pretreatment; format: cell-based, human; conditions: Supplementary Table 2; for EC50: Homo sapiens, HEK-293T, HEK293T viability, 72 h, compound alone, read-out: Cellular assays EC50; for Toxicity rescue: MLN4924-mediated cytotoxicity rescue, 10 µM used where n.d.
Protocol: HEK293T–Cas9 cells were resuspended at 0.15 × 10^6 ml^−1 treated with DMSO or 100 nM MLN4924 and plated on 384-well plates. After 2 h, the indicated drugs were dispensed with a D300 digital dispenser (Tecan). After 3 days of drug exposure, cell viability was assessed using the CellTiter-Glo luminescent assay (Promega, G7572) on an CLARIOstar Plus, MARS 3.4 (BMG LabTech). Cell viabilities were calculated relative to DMSO controls.

[2] = compound concentration 79.2001 nM
[3] = compound concentration 158.4 nM
[4] = compound concentration 309.6 nM
[5] = compound concentration 626.401 nM
[6] = compound concentration 1252.8 nM
[7] = compound concentration 9936.01 nM
[8] = compound concentration 20016 nM

TR-FRET signal at compound concentration (CDK12–cyclin K and DDB1; compound concentration 4.68 nM): 0.135 and 0.1336
TR-FRET signal at compound concentration (CDK12–cyclin K and DDB1; compound concentration 21.6 nM): 0.1436 and 0.1394
TR-FRET signal at compound concentration (CDK12–cyclin K and DDB1; compound concentration 36 nM): 0.1546 and 0.1561
TR-FRET signal at compound concentration (CDK12–cyclin K and DDB1; [2]): 0.1838 and 0.187
TR-FRET signal at compound concentration (CDK12–cyclin K and DDB1; [3]): 0.2226 and 0.2249
TR-FRET signal at compound concentration (CDK12–cyclin K and DDB1; [4]): 0.2777 and 0.285
TR-FRET signal at compound concentration (CDK12–cyclin K and DDB1; [5]): 0.3467 and 0.3568
TR-FRET signal at compound concentration (CDK12–cyclin K and DDB1; [6]): 0.4111 and 0.4466
TR-FRET signal at compound concentration (CDK12–cyclin K and DDB1; compound concentration 2448 nM): 0.4906 and 0.4799
TR-FRET signal at compound concentration (CDK12–cyclin K and DDB1; [7]): 0.5278 and 0.4844
TR-FRET signal at compound concentration (CDK12–cyclin K and DDB1; [8]): 0.4733 and 0.5319
EC50 (CDK12–cyclin K and DDB1): 0.456 ± 0.034 µM
DC50 [1]: > 10 µM
Compound: CC[C@H](CO)Nc1nc(NCCCc2ccncc2)c2ncn(C(C)C)c2n1 [DS27]
EC50 (HEK293T cells): > 10 µM
Toxicity rescue (HEK293T cells): 0%

TR-FRET signal, individual replicate (CDK12–cyclin K and DDB1; compound concentration 4.68 nM): 0.1908 and 0.2636
TR-FRET signal, individual replicate (CDK12–cyclin K and DDB1; compound concentration 21.6 nM): 0.201 and 0.2304
TR-FRET signal, individual replicate (CDK12–cyclin K and DDB1; compound concentration 36 nM): 0.2177 and 0.2395
TR-FRET signal, individual replicate (CDK12–cyclin K and DDB1; [2]): 0.2212 and 0.2472
TR-FRET signal, individual replicate (CDK12–cyclin K and DDB1; [3]): 0.2411 and 0.2679
TR-FRET signal, individual replicate (CDK12–cyclin K and DDB1; [4]): 0.2728 and 0.306
TR-FRET signal, individual replicate (CDK12–cyclin K and DDB1; [5]): 0.3075 and 0.349
TR-FRET signal, individual replicate (CDK12–cyclin K and DDB1; [6]): 0.3712 and 0.4097
TR-FRET signal, individual replicate (CDK12–cyclin K and DDB1; compound concentration 2448 nM): 0.4307 and 0.4643
TR-FRET signal, individual replicate (CDK12–cyclin K and DDB1; [7]): 0.5169 and 0.5543
TR-FRET signal, individual replicate (CDK12–cyclin K and DDB1; [8]): 0.5088 and 0.5368
DC50 [1]: > 10 µM
Compound: CC[C@H](CO)Nc1nc(NCCC2CC2)c2ncn(C(C)C)c2n1 [DS37]
EC50 (HEK293T cells): > 10 µM
Toxicity rescue (HEK293T cells): 0%

TR-FRET signal (CDK12–cyclin K and DDB1; compound concentration 4.68 nM): 0.1269 and 0.1552
TR-FRET signal (CDK12–cyclin K and DDB1; compound concentration 21.6 nM): 0.1368 and 0.156
TR-FRET signal (CDK12–cyclin K and DDB1; compound concentration 36 nM): 0.1404 and 0.1564
TR-FRET signal (CDK12–cyclin K and DDB1; [2]): 0.1332 and 0.164
TR-FRET signal (CDK12–cyclin K and DDB1; [3]): 0.1494 and 0.1683
TR-FRET signal (CDK12–cyclin K and DDB1; [4]): 0.1517 and 0.1802
TR-FRET signal (CDK12–cyclin K and DDB1; [5]): 0.1772 and 0.1976
TR-FRET signal (CDK12–cyclin K and DDB1; [6]): 0.2017 and 0.2255
TR-FRET signal (CDK12–cyclin K and DDB1; compound concentration 2448 nM): 0.2403 and 0.2789
TR-FRET signal (CDK12–cyclin K and DDB1; [7]): 0.333 and 0.3875
TR-FRET signal (CDK12–cyclin K and DDB1; [8]): 0.3528 and 0.412
EC50 (CDK12–cyclin K and DDB1): 3.23 ± 0.959 µM
DC50 [1]: > 10 µM
Compound: CCOCCOCCNc1nc(N[C@H](CC)CO)nc2c1ncn2C(C)C [DS13]
EC50 (HEK293T cells): > 10 µM
Toxicity rescue (HEK293T cells): 0%

TR-FRET signal at compound concentration 4.68 nM (CDK12–cyclin K and DDB1; compound concentration 4.68 nM, raw replicate titration data): 0.1294 and 0.1297
TR-FRET signal at compound concentration 21.6 nM (CDK12–cyclin K and DDB1; compound concentration 21.6 nM, raw replicate titration data): 0.1203 and 0.1454
TR-FRET signal at compound concentration 36 nM (CDK12–cyclin K and DDB1; compound concentration 36 nM, raw replicate titration data): 0.1008 and 0.09563
TR-FRET signal at compound concentration 79.2001 nM (CDK12–cyclin K and DDB1; compound concentration 79.2001 nM, raw replicate titration data): 0.09205 and 0.08033
TR-FRET signal at compound concentration 158.4 nM (CDK12–cyclin K and DDB1; compound concentration 158.4 nM, raw replicate titration data): 0.08734 and 0.07305
TR-FRET signal at compound concentration 309.6 nM (CDK12–cyclin K and DDB1; compound concentration 309.6 nM, raw replicate titration data): 0.08584 and 0.06932
TR-FRET signal at compound concentration 626.401 nM (CDK12–cyclin K and DDB1; compound concentration 626.401 nM, raw replicate titration data): 0.07997 and 0.06847
TR-FRET signal at compound concentration 1252.8 nM (CDK12–cyclin K and DDB1; compound concentration 1252.8 nM, raw replicate titration data): 0.0797 and 0.06911
TR-FRET signal at compound concentration 2448 nM (CDK12–cyclin K and DDB1; compound concentration 2448 nM, raw replicate titration data): 0.07318 and 0.06928
TR-FRET signal at compound concentration 9936.01 nM (CDK12–cyclin K and DDB1; compound concentration 9936.01 nM, raw replicate titration data): 0.07478 and 0.06588
TR-FRET signal at compound concentration 20016 nM (CDK12–cyclin K and DDB1; compound concentration 20016 nM, raw replicate titration data): 0.07606 and 0.06434
DC50 [1]: > 10 µM
Compound: CN(C)C/C=C/C(=O)Nc1ccc(C(=O)N2CCC[C@@H](Nc3ncc(Cl)c(-c4c[nH]c5ccccc45)n3)C2)cc1 [THZ531, reference compound]
EC50 (HEK293T cells): 0.271 µM
Toxicity rescue (HEK293T cells): -22%

Reference: publication PMC10746543, “Design principles for cyclin K molecular glue degraders” (Nature Chemical Biology, 2023)
